# Results: paper PMC11859031, “Assessment of the In Vitro Biological Activities of Schiff Base-Synthesized Copper Oxide Nanoparticles as an Anti-Diabetic, Anti-Alzheimer, and Anti-Cancer Agent” (Pharmaceutics, 2025)
# Key:
# ABTS radical scavenging = conditions: mean ± SE, n = 3
# Experimental: The procedure for the 2,2'-azinobis-(3-ethylbenzothiazoline-6-sulfonic acid) (ABTS) […]
# solution (7 mM) and potassium persulfate solution (2.4 mM). The working solution was prepared by mixing the two stock solutions in equal quantities and allowing them to react at room temperature in a dark place for 14 hours. The solution was then diluted by mixing 1 mL of ABTS solution with 60 mL of methanol to obtain an absorbance of 0.706 ± 0.01 units at 734 nm using a spectrophotometer. Fresh ABTS solution was prepared for each assay. The tested samples (at each concentration) were allowed to react with 1 mL of the ABTS solution, and the absorbance was taken at 734 nm after 7 minutes using a spectrophotometer. […]
# NO radical scavenging = conditions: mean ± SE, n = 3
# Experimental: The in vitro biological applications of the SB and SB-CuO-NPs, including antioxidant, scavenging, anti-diabetic, anti-Alzheimer, anti-arthritic, anti-inflammatory, cytotoxic effects, and enzyme inhibition, were assessed using methods described in the literature (See Supplementary Materials).
# During the current study, the free radical scavenging capacity of SB-CuO-NPs, SB, and ascorbic acid (positive control) was evaluated using the DPPH, ABTS, and NO radical methods. The scavenging activity is used to predict antioxidant efficacy, a mechanism in which antioxidants inhibit lipid oxidation. The lower IC50 value indicates a stronger ability of the SB-CuO-NPs to act as radical scavengers, whereas the higher IC50 value indicates a lower scavenging activity. […] The lower the IC50 value, the greater the antioxidant activity.
# [1] = target: acetylcholinesterase (AChE) (Homo sapiens, UniProt P22303); assay: biochemical; conditions: mean ± SE, n = 3
# Experimental: The absorbance was measured at 540 nm using a UV-Visible spectrophotometer. The IC50 of each tested sample was calculated by plotting a curve using a series of sample concentrations against the percent of α-amylase inhibition.
# The inhibition percentage (%) of the α-glucosidase enzyme was determined using the […]
# standard drug. Five μL of the α-glucosidase solution (10 units mL−1, 0.1moll−1 potassium phosphate buffer, pH 6.8) was pre -mixed with 10 μL of the sample solution at different concentrations (in 10% DMSO) i n 620 μL of 0.1 moll−1 potassium […]
# phosphate buffer (pH 6.8). […]
# phenyl glucopyranoside (pNPG, 10 mmoll−1) as a substrate was added to the mixture […]
# minutes, followed by the addition of 650 μL of 1 moll−1 Na2CO3 solution to terminate the reaction. The amount of released product (p-nitro phenol) was measured at 410 […]
# activity. The inhibition assay was performed in triplicate for all tests. The IC50 of each tested sample was calculated by plotting a curve using a series of sample concentrations against the percent of α-glucosidase inhibition.
# 3.4. Anti-Alzheimer's activity
# In this study, we assessed the inhibition percentage of the acetylcholinesterase (AChE) enzyme using Ellman's method with donepezil as the standard drug. […] After incubation, 5 µL of AChE at a concentration of 0.3 U/mL was added to start the reaction, and the absorbance […]
# [2] = target: T1, 5-LOX enzyme (human recombinant) (Homo sapiens, UniProt P09917); assay: 5-Lipoxygenase inhibition assay; assay type: biochemical; conditions: mean ± SE, n = 3
# T1 construct: purchased Sigma-Aldrich 437996
# T1 sequence (P09917 1-674): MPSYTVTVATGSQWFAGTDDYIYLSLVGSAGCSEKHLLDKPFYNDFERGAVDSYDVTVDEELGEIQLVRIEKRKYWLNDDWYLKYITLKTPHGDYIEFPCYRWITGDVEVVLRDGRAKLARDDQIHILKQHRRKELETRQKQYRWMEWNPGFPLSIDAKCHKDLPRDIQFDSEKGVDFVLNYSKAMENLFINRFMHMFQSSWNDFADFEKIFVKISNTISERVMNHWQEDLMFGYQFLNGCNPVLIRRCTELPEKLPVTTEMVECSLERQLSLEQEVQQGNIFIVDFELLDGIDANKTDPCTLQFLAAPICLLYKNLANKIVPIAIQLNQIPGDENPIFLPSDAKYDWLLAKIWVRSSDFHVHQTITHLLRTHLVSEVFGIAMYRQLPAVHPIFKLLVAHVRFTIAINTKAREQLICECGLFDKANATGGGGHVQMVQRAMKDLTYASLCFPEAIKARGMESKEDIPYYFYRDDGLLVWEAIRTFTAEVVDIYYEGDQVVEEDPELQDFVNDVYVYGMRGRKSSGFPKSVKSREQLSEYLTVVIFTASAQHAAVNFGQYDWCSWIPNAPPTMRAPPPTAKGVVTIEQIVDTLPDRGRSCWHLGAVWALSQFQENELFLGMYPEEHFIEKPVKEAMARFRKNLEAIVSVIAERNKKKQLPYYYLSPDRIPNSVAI
# Bcl-2 in Caco-2 cells = assay: Bcl-2 ELISA in treated Caco-2 cells; assay type: cell-based, human; conditions: Caco-2 cells treated at the IC50 value, mean ± SE, n = 3
# Experimental: (§1) Following the treatment of HepG-2, Caco-2, A549, and BJ-1 cells with the SB-CuO-NPs at their respective IC50 values, as illustrated in Figure 9 and detailed in Table 5, an assessment of the activities of the caspase-3 and Bcl-2 enzymes was conducted in the treated cells. […] This mechanism ultimately triggers apoptosis. Additionally, the increased activity of caspase-3 results in a decrease in the expression of cyclin D1 and CDK-2 mRNA, thereby promoting the arrest of the G1 phase of the cell cycle. Othman et al. further noted that the biosynthesized M-NPs facilitate apoptosis by inhibiting the expression of the PI3K/AKT and Ras/Raf/ERK protein signaling pathways.
# (§2) Invitrogen Corporation, following the manufacturer's instructions.
# caspase-3 in A549 cells = assay: Caspase-3 ELISA in treated A549 cells; assay type: cell-based, human; conditions: A549 cells treated at the IC50 value, mean ± SE, n = 3
# Experimental: as §1, §2
# [3] = tested on: human hepatocellular carcinoma (HepG-2) cell line; assay: MTT cytotoxicity, HepG-2
# Chain of acetylcholinesterase (AChE) (P22303 32-614, species assumed): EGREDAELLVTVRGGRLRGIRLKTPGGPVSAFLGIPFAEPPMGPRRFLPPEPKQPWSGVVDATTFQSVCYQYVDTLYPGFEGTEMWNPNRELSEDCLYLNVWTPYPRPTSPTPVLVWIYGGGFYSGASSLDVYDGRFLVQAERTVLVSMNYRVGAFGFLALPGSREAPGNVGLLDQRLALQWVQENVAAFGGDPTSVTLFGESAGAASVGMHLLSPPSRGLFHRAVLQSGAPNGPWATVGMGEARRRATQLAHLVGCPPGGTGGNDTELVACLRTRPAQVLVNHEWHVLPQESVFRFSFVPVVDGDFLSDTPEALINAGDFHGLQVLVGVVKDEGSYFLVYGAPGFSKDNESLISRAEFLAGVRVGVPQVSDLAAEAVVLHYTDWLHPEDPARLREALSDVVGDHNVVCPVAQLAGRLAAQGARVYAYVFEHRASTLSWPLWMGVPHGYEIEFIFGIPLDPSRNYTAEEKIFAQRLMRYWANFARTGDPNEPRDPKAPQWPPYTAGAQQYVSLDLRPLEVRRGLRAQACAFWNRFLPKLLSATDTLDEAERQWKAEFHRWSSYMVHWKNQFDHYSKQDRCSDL
compound,measurement,setting,value
Cc1nn(-c2ccccc2)c(Cl)c1C=NN=C1C(=O)Nc2ccccc21 [SB],Scavenging activity ABTS Inhib. (%),ABTS radical scavenging; at 100 µg/mL,48.29 ± 0.18%
same,Scavenging activity ABTS IC50,ABTS radical scavenging,5.40 ± 0.06 µg/mL
same,Scavenging activity NO Inhib. (%),NO radical scavenging; at 100 µg/mL,36.79 ± 0.18%
same,Scavenging activity NO IC50,NO radical scavenging,7.69 ± 0.04 µg/mL
same,inhibition at 100 µg/mL,"[1]; at 100 µg/mL, read-out: Acetylcholinesterase (AChE) Inhib. (%)",32.64 ± 0.16%
same,IC50,[1],19.2 µM
same,inhibition at 100 µg/mL,"[2]; at 100 µg/mL, read-out: 5-LOX Inhib. (%)",26.71 ± 0.18%
same,IC50,[2],36.6 µM
same,Bcl-2,Bcl-2 in Caco-2 cells,3.77 ± 0.05 ng/mL
same,Caspase-3,caspase-3 in A549 cells,134.94 ± 0.18 pg/mL
same,viability at 31.13 µg/mL,[3]; HepG2,87.6%
same,viability at 62.5 µg/mL,[3]; HepG2,74.6%
same,viability at 125 µg/mL,[3]; HepG2,53.1%
same,viability at 250 µg/mL,[3]; HepG2,40.2%
same,viability at 500 µg/mL,[3]; HepG2,19.3%
same,IC50,"[3]; HepG2, 48 h, read-out: Median Inhibitory Concentration (IC50) HepG-2",127 ± 3.13 µg/mL
